Test results taken from patent publication US12371441B2, “Siderophore cephalosporin conjugates and uses thereof” (ARIVA MED GMBH, priority 2019, dated 2025).
≈ marks a conversion by molar mass, not a printed value. Read-outs that look alike come from different tables or passages of the source.

What was measured:
[1] = tested on: Klebsiella pneumoniae ATCC 43816; assay: MIC by standard broth microdilution (CLSI), Klebsiella pneumoniae; format: cell-based
Method: (§1) The in vitro activity against bacteria was determined by standard broth microdilution according to the Clinical and Laboratory Standards Institute CLSI document (Performance Standards for Antimicrobial Susceptibility Testing) M100Ed29E (2019) and (Methods for Dilution Antimicrobial Susceptibility Test for Bacteria That Grow Aerobically) M07Ed11 (2018). The data were obtained using cation-adjusted Mueller Hinton broth medium (CAMHB), and additionally iron-depleted CAMHB medium (ID-CAMHB) for compounds with iron-chelating activity.

[2] = Chromeazurol assay (iron-chelating property); format: physicochemical; settings: for IC50: absorbance at 630 nm
Method: The iron-chelating property was determined by the chromeazurol assay according to Schwyn B., et al, Universal Chemical Assay for the Detection and Determination of Siderophores, 1987. Analytical Biochemistry 160: 47-56. The assay uses the affinity of chrome azurol S/iron(III)/hexadecyltrimethylamimonium bromide for iron(III). When a strong chelator removes the iron from this dye, its color turns from blue to orange and the absorbance measured at 630 nm is indicative for the chelating properties of a siderophore.

[3] = tested on: Pseudomonas aeruginosa ATCC 27853; assay: MIC by standard broth microdilution (CLSI), Pseudomonas aeruginosa; format: cell-based
Method: as §1

[4] = tested on: Escherichia coli ATCC 25922; assay: MIC by standard broth microdilution (CLSI), Escherichia coli; format: cell-based
Method: as §1

[5] = tested on: Burkholderia cepacia CF and non-CF isolates, n = 5; assay: MIC by standard broth microdilution (CLSI), Burkholderia cepacia isolates; format: cell-based
Method: as §1

[6] = tested on: Acinetobacter baumannii ATCC 15473; assay: MIC by standard broth microdilution (CLSI), Acinetobacter baumannii; format: cell-based
Method: as §1

[7] = ATCC43816, KP ATCC 43816, cation-adjusted Mueller Hinton broth (CAMHB), read-out: MIC in CAMHB medium
[8] = ATCC43816, KP ATCC 43816, iron-depleted CAMHB (value in parentheses), read-out: MIC in ID-CAMHB medium
[9] = ATCC27853, PA ATCC 27853, cation-adjusted Mueller Hinton broth (CAMHB), read-out: MIC in CAMHB medium
[10] = ATCC27853, PA ATCC 27853, iron-depleted CAMHB (value in parentheses), read-out: MIC in ID-CAMHB medium
[11] = ATCC25922, EC ATCC 25922, cation-adjusted Mueller Hinton broth (CAMHB), read-out: MIC in CAMHB medium
[12] = ATCC25922, EC ATCC 25922, iron-depleted CAMHB (value in parentheses), read-out: MIC in ID-CAMHB medium
[13] = read-out: MIC in ID-CAMHB medium
[14] = ATCC15473, AB ATCC 15473, cation-adjusted Mueller Hinton broth (CAMHB), read-out: MIC in CAMHB medium
[15] = ATCC15473, AB ATCC 15473, iron-depleted CAMHB (value in parentheses), read-out: MIC in ID-CAMHB medium

Row | Compound | MIC [1, 7] [µg/mL] | MIC [1, 8] [µg/mL] | IC50 [2] [µM] | MIC [3, 9] [µg/mL] | MIC [3, 10] [µg/mL] | MIC [4, 11] [µg/mL] | MIC [4, 12] [µg/mL] | MIC ([5]; read-out: MIC in CAMHB medium) [µg/mL] | MIC [5, 13] [µg/mL] | MIC [6, 14] [µg/mL] | MIC [6, 15] [µg/mL] | iron-chelating activity compared with cefiderocol ([2]; versus the one measured for cefiderocol (table 1)) | MIC ([5]; BC CF and non-CF isolates, n = 5 (MIC range), CAMHB, read-out: MIC in CAMHB medium) [µg/mL]
1 | CC(C)(O/N=C(\C(=O)N[C@@H]1C(=O)N2C(C(=O)[O-])=C(C[N+]3(CCNC(=O)c4ccc(O)c(O)c4Cl)CCCC3)CS[C@H]12)c1csc(N)n1)C(=O)O [Cefiderocol, cefiderocol, reference compound] | 2 (≈ 2.66 µM) | 0.5 (≈ 0.665 µM) | 68.9 | 1 (≈ 1.33 µM) | 0.5 (≈ 0.665 µM) | 0.25 (≈ 0.332 µM) | 0.25 (≈ 0.332 µM) | ≤ 0.03 | ≤ 0.03 | 0.25 (≈ 0.332 µM) | 0.12 (≈ 0.16 µM) |  | 
2 | CC(C)(O/N=C(\C(=O)N[C@@H]1C(=O)N2C(C(=O)O)=C(C=NOCc3cc(=O)c(O)cn3O)CS[C@H]12)c1csc(N)n1)C(=O)O [Example 1, (6R,7R)-7-[[(2Z)-2-(2-aminothiazol-4-yl)-2-(1-carboxy-1-methyl-ethoxy)imino-acetyl]amino]-3-[(1,5-dihydroxy-4-oxo-2-pyridyl)methoxyiminomethyl]-8-oxo-5-thia-1-azabicyclo[4.2.0]oct-2-ene-2-carboxylic acid] | ≤ 0.03 | 0.25 (≈ 0.392 µM) | 7.18 | 1 (≈ 1.57 µM) | 0.25 (≈ 0.392 µM) | 0.12 (≈ 0.188 µM) | 0.25 (≈ 0.392 µM) | 0.03 to 0.06 (≈ 0.0471 to 0.0941 µM) | 0.03 to 0.12 (≈ 0.0471 to 0.188 µM) | 2 (≈ 3.14 µM) | 0.5 (≈ 0.784 µM) |  | 
3 | Cn1c(N)c(NC(=O)NCCN)c[n+]1CC1=C(C(=O)O)N2C(=O)[C@@H](NC(=O)/C(=N\OC(C)(C)C(=O)[O-])c3nsc(N)n3)[C@H]2SC1 [Ceftolozane, reference compound] | 0.25 (≈ 0.375 µM) |  | > 100 | 0.5 (≈ 0.75 µM) |  | 0.25 (≈ 0.375 µM) |  | 2 to 8 (≈ 3 to 12 µM) |  | 2 (≈ 3 µM) |  |  | 
4 | CC(C)(O/N=C(\C(=O)NC1C(=O)N2C(C(=O)O)=C(C=NOCCNC(=O)c3ccc(O)c(O)c3Cl)CSC12)c1nsc(N)n1)C(=O)O (stereo not shown) [Example 5, 7-[[(2Z)-2-(5-amino-1,2,4-thiadiazol-3-yl)-2-(1-carboxy-1-methyl-ethoxy)imino-acetyl]amino]-3-[2-[(2-chloro-3,4-dihydroxy-benzoyl)amino]ethoxyiminomethyl]-8-oxo-5-thia-1-azabicyclo[4.2.0]oct-2-ene-2-carboxylic acid] | 0.5 (≈ 0.701 µM) | 1 (≈ 1.4 µM) | 6.41 | 2 (≈ 2.8 µM) | 0.5 (≈ 0.701 µM) | 0.25 (≈ 0.351 µM) | 0.25 (≈ 0.351 µM) | 0.03 to 0.12 (≈ 0.0421 to 0.168 µM) | 0.03 to 0.12 (≈ 0.0421 to 0.168 µM) | 1 (≈ 1.4 µM) | 0.5 (≈ 0.701 µM) |  | 
5 | CC(C)(O/N=C(\C(=O)NC1C(=O)N2C(C(=O)O)=C(C=NO[C@H]3C[C@H](NC(=O)c4ccc(O)c(O)c4Cl)C3)CSC12)c1csc(N)n1)C(=O)O (relative stereo) [Example 7, 7-[[(2Z)-2-(2-aminothiazol-4-yl)-2-(1-carboxy-1-methyl-ethoxy)imino-acetyl]amino]-3-[[3-[(2-chloro-3,4-dihydroxy-benzoyl)amino]- trans-cyclobutoxy]iminomethyl]-8-oxo-5-thia-1-azabicyclo[4.2.0]oct-2-ene-2-carboxylic acid] | 0.12 (≈ 0.163 µM) | 0.5 (≈ 0.677 µM) | 4.66 | 2 (≈ 2.71 µM) | 1 (≈ 1.35 µM) | 0.5 (≈ 0.677 µM) | 0.5 (≈ 0.677 µM) | 0.03 to 0.12 (≈ 0.0406 to 0.163 µM) | 0.03 to 0.12 (≈ 0.0406 to 0.163 µM) | 2 (≈ 2.71 µM) | 1 (≈ 1.35 µM) |  | 
6 | CC(C)(O/N=C(\C(=O)NC1C(=O)N2C(C(=O)O)=C(C=NO[C@H]3CCN(C(=O)c4ccc(O)c(O)c4Cl)C3)CSC12)c1csc(N)n1)C(=O)O (stereo partly drawn) [Example 8, 7-[[(2Z)-2-(2-aminothiazol-4-yl)-2-(1-carboxy-1-methyl-ethoxy)imino-acetyl]amino]-3-{[(3S)-1-(2-chloro-3,4-dihydroxy-benzoyl)pyrrolidine-3-yl]oxyiminomethyl}-8-oxo-5-thia-1-azabicyclo[4.2.0]oct-2-ene-2-carboxylic acid] | < 0.03 | < 0.03 | 5.64 | 1 (≈ 1.35 µM) | 0.25 (≈ 0.339 µM) | 0.12 (≈ 0.163 µM) | 0.12 (≈ 0.163 µM) |  |  | 0.5 (≈ 0.677 µM) | 0.5 (≈ 0.677 µM) |  | 
7 | CC(C)(O/N=C(\C(=O)N[C@@H]1C(=O)N2C(C(=O)O)=C(C=NOCc3cc(=O)c(O)cn3O)CS[C@H]12)c1nsc(N)n1)C(=O)O [Example 2, (6R,7R)-7-[[(2Z)-2-(5-amino-1,2,4-thiadiazol-3-yl)-2-(1-carboxy-1-methyl-ethoxy)imino-acetyl]amino]-3-[(1,5-dihydroxy-4-oxo-2-pyridyl)methoxyiminomethyl]-8-oxo-5-thia-1-azabicyclo[4.2.0]oct-2-ene-2-carboxylic acid] | 0.06 (≈ 0.094 µM) |  | 9.56 | 0.5 (≈ 0.783 µM) | 0.12 (≈ 0.188 µM) | 0.06 (≈ 0.094 µM) |  | 0.03 to 0.5 (≈ 0.047 to 0.783 µM) | 0.03 to 0.5 (≈ 0.047 to 0.783 µM) | 1 (≈ 1.57 µM) |  |  | 
8 | Nc1nc(/C(=N/OCF)C(=O)N[C@@H]2C(=O)N3C(C(=O)O)=C(C=NOCc4cc(=O)c(O)cn4O)CS[C@H]23)ns1 [Example 3, (6R,7R)-7-[[(2Z)-2-(5-amino-1,2,4-thiadiazol-3-yl)-2-(fluoromethoxyimino)acetyl]amino]-3-[(1,5-dihydroxy-4-oxo-2-pyridyl)methoxyiminomethyl]-8-oxo-5-thia-1-azabicyclo[4.2.0]oct-2-ene-2-carboxylic acid] | ≤ 0.03 | ≤ 0.03 | 7.96 | 4 (≈ 6.84 µM) | 0.5 (≈ 0.855 µM) | ≤ 0.03 | ≤ 0.03 |  |  | 8 (≈ 13.7 µM) | 16 (≈ 27.4 µM) |  | 
9 | CC(C)(O/N=C(\C(=O)NC1C(=O)N2C(C(=O)O)=C(C=NOCCNC(=O)c3ccc(O)c(O)c3Cl)CSC12)c1csc(N)n1)C(=O)O (stereo not shown) [Example 4, 7-[[(2Z)-2-(2-aminothiazol-4-yl)-2-(1-carboxy-1-methyl-ethoxy)imino-acetyl]amino]-3-[2-[(2-chloro-3,4-dihydroxy-benzoyl)amino]ethoxyiminomethyl]-8-oxo-5-thia-1-azabicyclo[4.2.0]oct-2-ene-2-carboxylic acid] | 0.06 (≈ 0.0843 µM) | 0.06 (≈ 0.0843 µM) | 4.22 | 2 (≈ 2.81 µM) | 0.5 (≈ 0.702 µM) | 0.25 (≈ 0.351 µM) | 0.25 (≈ 0.351 µM) | 0.03 to 0.12 (≈ 0.0421 to 0.169 µM) | 0.03 to 0.06 (≈ 0.0421 to 0.0843 µM) | 4 (≈ 5.62 µM) | 1 (≈ 1.4 µM) | an order of magnitude stronger | 
10 | Nc1nc(/C(=N/OCF)C(=O)NC2C(=O)N3C(C(=O)O)=C(C=NOCCNC(=O)c4ccc(O)c(O)c4Cl)CSC23)ns1 (stereo not shown) [Example 6, 7-[[(2Z)-2-(5-amino-1,2,4-thiadiazol-3-yl)-2-(fluoromethoxyimino)-acetyl]amino]-3-[2-[(2-chloro-3,4-dihydroxy-benzoyl)amino]ethoxyiminomethyl]-8-oxo-5-thia-1-azabicyclo[4.2.0]oct-2-ene-2-carboxylic acid] | ≤ 0.03 | ≤ 0.03 | 6.46 | 4 (≈ 6.07 µM) | 1 (≈ 1.52 µM) | 0.25 (≈ 0.379 µM) | 0.12 (≈ 0.182 µM) |  |  | 4 (≈ 6.07 µM) | 4 (≈ 6.07 µM) |  | 
11 | CC(C)(O/N=C(\C(=O)N[C@@H]1C(=O)N2C(C(=O)[O-])=C(C[n+]3ccccc3)CS[C@H]12)c1csc(N)n1)C(=O)O [Ceftazidime, reference compound] | 0.12 (≈ 0.22 µM) |  | > 100 | 2 (≈ 3.66 µM) |  | 0.12 (≈ 0.22 µM) |  |  |  | 4 (≈ 7.32 µM) |  |  | 4 to 16 (≈ 7.32 to 29.3 µM)
